Changes are numbered by the printed parent chain. pEC50, pKi: −log10 of the molar value.
Experiments:
[1] = target: T1, human AT1 receptor (angiotensin II type 1 receptor) (Homo sapiens, UniProt P30556); assay: […]-Ang II competition binding, membranes
T1 construct: gene AGTR1; full-length receptor transfected in HEK293A cells; AT1 (human)-mCherry plasmid for NFAT assay
T1 sequence (P30556 1-359): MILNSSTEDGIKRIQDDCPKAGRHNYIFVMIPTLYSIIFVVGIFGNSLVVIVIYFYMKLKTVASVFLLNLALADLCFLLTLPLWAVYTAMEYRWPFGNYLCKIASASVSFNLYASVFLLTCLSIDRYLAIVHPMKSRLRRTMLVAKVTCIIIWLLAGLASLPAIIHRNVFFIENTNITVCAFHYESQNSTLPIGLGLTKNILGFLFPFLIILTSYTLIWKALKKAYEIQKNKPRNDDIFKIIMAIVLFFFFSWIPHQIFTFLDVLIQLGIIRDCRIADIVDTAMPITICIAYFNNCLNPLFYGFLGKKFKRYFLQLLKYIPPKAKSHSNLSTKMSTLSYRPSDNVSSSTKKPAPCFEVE

[2] = target: T2, human AT1 receptor (angiotensin II type 1 receptor) (Homo sapiens, UniProt P30556, C289S); assay: […]-Ang II competition binding, membranes
T2 construct: gene AGTR1; full-length receptor transfected in HEK293A cells; AT1 (human)-mCherry plasmid for NFAT assay
T2 sequence (P30556 1-359 C289S): T1 sequence (P30556 1-359) with C289S

[3] = target: T1, human AT1 receptor (angiotensin II type 1 receptor); assay: Ca2+ flux, Fluo-3-AM, HEK293A cells; type: cell-based
[4] = target: T3, human AT1 receptor (angiotensin II type 1 receptor) (Homo sapiens, UniProt P30556, R167A); assay: […]-Ang II competition binding, membranes
T3 construct: gene AGTR1; full-length receptor transfected in HEK293A cells; AT1 (human)-mCherry plasmid for NFAT assay
T3 sequence (P30556 1-359 R167A): T1 sequence (P30556 1-359) with R167A

How did the pKi [1] turn out when `NC(CCS)C(=O)O` (racemic) [Hcy] was run?
The pKi was 4.97.

And the pKi [2]?
The pKi was 3.80.

And the pEC50 [3]?
The pEC50 was 4.09.

And the pKi [4]?
The pKi was 4.04.

From paper PMC5750214 (Nature Communications, 2018)
